Experiments:
[1] = tested on: HeLa cells (cervical cancer); assay: Cell proliferation measurement (Cell Titer Glo), HeLa; format: cell-based; conditions: Homo sapiens, 72 h treatment, read-out: Anti-proliferation IC50 HeLa (Cervical cancer)
Outline: (§1)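 Cells (1000/well; 500 for HeLa) plated overnight at 37 °C, then exposed to a ≥10-point compound dilution series for 72 h at 37 °C, DMSO 0.3% final as vehicle. Viability read by CellTiter-Glo luminescence; IC50 from 4-parameter fit against untreated wells.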

human full length PDE3B = target: T1, human full length PDE3B (Homo sapiens, UniProt Q13370); assay: PDE3B enzyme inhibition (3H-cAMP Scintillation Proximity Assay); format: biochemical; conditions: PDE3B cell extract from Sf9 cells, 60 min room temperature; read-out: Target IC50 PDE3B IC50
T1 construct: Sf9 cells overexpressing human full length PDE3B; purchased SB Drug Discovery, UK; host or cells: Sf9 cells (cell extract)
T1 sequence (Q13370 whole entry): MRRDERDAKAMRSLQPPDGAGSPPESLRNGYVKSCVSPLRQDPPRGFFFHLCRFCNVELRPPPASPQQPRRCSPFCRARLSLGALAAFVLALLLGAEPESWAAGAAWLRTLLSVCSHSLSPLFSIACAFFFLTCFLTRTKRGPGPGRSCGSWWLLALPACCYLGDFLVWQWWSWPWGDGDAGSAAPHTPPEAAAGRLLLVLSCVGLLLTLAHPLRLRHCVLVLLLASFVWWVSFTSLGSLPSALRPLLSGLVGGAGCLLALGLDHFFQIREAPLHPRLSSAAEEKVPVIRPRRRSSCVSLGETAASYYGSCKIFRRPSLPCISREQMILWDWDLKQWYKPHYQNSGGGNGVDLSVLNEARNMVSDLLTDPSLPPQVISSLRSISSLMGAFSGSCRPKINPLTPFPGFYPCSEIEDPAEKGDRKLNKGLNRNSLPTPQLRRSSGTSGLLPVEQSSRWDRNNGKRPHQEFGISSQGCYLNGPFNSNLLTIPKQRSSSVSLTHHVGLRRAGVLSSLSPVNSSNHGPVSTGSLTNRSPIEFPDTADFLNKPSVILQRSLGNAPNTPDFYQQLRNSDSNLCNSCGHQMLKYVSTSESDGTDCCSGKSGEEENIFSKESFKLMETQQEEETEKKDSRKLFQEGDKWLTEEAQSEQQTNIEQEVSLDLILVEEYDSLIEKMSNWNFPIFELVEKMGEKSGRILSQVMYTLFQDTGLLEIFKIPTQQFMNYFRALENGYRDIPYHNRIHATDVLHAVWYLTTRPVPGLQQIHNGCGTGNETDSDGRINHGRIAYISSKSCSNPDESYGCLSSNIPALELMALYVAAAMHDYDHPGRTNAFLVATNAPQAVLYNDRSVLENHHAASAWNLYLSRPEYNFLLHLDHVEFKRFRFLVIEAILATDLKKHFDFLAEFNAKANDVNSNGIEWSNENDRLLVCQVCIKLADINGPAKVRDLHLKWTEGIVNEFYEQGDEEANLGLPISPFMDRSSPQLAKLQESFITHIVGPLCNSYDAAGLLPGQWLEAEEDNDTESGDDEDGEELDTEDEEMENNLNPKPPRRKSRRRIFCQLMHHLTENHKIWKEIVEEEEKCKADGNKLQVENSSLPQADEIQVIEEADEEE
Outline: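 SPA with Sf9 cell extract overexpressing human full-length PDE3B, diluted for linear kinetics and <70% substrate turnover, in 50 mM Tris/HCl pH 7.5, 8.3 mM MgCl2, 1.7 mM EDTA, 0.2% BSA. [8-3H]cAMP substrate, 60 min at room temperature, stopped with yttrium SPA beads. IC50 from sigmoidal fit of % activity vs log concentration.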

SK-MEL-3 (melanoma) = assay: Cell proliferation measurement (Cell Titer Glo), SK-MEL-3; format: cell-based; conditions: Homo sapiens, SK-MEL3, SK-MEL-3 cells, 72 h treatment, read-out: Anti-proliferation IC50 SK-MEL-3 (melanoma)
Outline: as §1

human full length PDE3A = target: T2, human full length PDE3A (Homo sapiens, UniProt Q14432); assay: PDE3A enzyme inhibition (3H-cAMP Scintillation Proximity Assay); format: biochemical; conditions: PDE3A cell extract from Sf9 cells, 60 min room temperature; read-out: Target IC50 PDE3A IC50
T2 construct: Sf9 cells overexpressing human full length PDE3A; purchased SB Drug Discovery, UK; host or cells: Sf9 cells (cell extract)
T2 sequence (Q14432 whole entry): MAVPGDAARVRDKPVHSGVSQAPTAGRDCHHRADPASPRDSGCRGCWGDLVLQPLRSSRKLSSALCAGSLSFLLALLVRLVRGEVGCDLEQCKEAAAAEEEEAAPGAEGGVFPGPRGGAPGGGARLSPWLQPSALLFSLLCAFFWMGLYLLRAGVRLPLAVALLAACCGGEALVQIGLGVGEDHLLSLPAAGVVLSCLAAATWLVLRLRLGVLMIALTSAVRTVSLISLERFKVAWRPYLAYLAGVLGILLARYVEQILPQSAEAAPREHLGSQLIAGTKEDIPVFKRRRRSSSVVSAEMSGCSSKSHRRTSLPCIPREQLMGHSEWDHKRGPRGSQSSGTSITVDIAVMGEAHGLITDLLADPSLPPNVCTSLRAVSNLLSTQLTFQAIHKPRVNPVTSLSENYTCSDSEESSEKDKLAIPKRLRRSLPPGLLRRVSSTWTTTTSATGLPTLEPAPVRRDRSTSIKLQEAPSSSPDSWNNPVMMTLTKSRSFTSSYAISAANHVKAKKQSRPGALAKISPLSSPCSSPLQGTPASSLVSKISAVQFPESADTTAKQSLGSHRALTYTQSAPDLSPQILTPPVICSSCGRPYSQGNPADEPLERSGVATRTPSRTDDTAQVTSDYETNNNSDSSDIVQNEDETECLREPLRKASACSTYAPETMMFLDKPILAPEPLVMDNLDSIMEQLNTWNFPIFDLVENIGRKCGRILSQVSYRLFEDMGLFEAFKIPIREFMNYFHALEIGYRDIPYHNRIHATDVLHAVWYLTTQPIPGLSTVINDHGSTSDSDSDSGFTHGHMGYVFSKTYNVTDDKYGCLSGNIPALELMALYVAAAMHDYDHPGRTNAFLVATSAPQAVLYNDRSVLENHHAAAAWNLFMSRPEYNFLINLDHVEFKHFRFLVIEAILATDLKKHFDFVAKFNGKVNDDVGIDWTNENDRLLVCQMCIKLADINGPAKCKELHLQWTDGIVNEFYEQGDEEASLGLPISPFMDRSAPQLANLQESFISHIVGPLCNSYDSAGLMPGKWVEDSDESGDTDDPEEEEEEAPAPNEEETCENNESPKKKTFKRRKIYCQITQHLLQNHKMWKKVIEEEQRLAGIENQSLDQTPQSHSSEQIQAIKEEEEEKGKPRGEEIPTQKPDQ
Outline: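 Sf9 cell extract overexpressing human full-length PDE3A, diluted for linear kinetics (<70% substrate used), in 50 mM Tris/HCl pH 7.5, 8.3 mM MgCl2, 1.7 mM EDTA, 0.2% BSA. [8-3H]cAMP substrate, 60 min at room temperature, yttrium SPA bead read-out; IC50 from sigmoidal curves of % activity.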

Row | SMILES | IC50 [1] | IC50 (human full length PDE3B) | IC50 (SK-MEL-3 (melanoma)) | IC50 (human full length PDE3A)
1 | Nc1ccc(F)cc1-c1ccc(C2=NNC(=O)CC2)cc1F [Example 43, 6-(2′-amino-2,5′-difluoro[1,1′-biphenyl]-4-yl)-4,5-dihydropyridazin-3(2H)-one] | 15.3 nM | 110 nM | 26.3 nM | 110 nM
2 | COc1ccc(C2=NNC(=O)CC2)cc1Cl [Example 10, 6-(3-Chloro-4-methoxyphenyl)-4,5-dihydropyridazin-3(2H)-one] | 31.8 nM | 110 nM | 40.2 nM | 110 nM
3 | CNc1ccc(C2=NNC(=O)CC2)cc1C(F)(F)F [Example 23, 6-[4-(Methylamino)-3-(trifluoromethyl)phenyl]-4,5-dihydropyridazin-3(2H)-one] | 58 nM | 470 nM | 67.6 nM | 450 nM
4 | Cc1ncccc1-c1ccc(C2=NNC(=O)CC2)cc1F [Example 33, 6-[3-fluoro-4-(2-methylpyridin-3-yl)phenyl]-4,5-dihydropyridazin-3(2H)-one] | 14.4 nM | 67 nM | 24.8 nM | 66 nM
5 | O=C1CCC(c2ccc(-c3cc(F)c(F)cc3F)c(F)c2)=NN1 [Example 38, 6-(2,2′,4′,5′-tetrafluoro[1,1′-biphenyl]-4-yl)-4,5-dihydropyridazin-3(2H)-one] | 5.59 nM | 100 nM | 11.1 nM | 100 nM
6 | CC(C)=Cc1ccc(C2=NNC(=O)CC2)cc1F [Example 27, 6-[3-Fluoro-4-(2-methylprop-1-en-1-yl)phenyl]-4,5-dihydropyridazin-3(2H)-one] | 3.36 nM | 140 nM | 6.1 nM | 130 nM
7 | O=C1CCC(c2ccc(-c3ccccc3OC(F)(F)F)c(F)c2)=NN1 [Example 44, 6-[2-fluoro-2′-(trifluoromethoxy)[1,1′-biphenyl]-4-yl]-4,5-dihydropyridazin-3(2H)-one] | 17.9 nM | 95 nM | 34.5 nM | 180 nM
8 | Cc1cc(C2=NNC(=O)CC2)ccc1C1=CCOCC1 [Example 7, 6-[4-(3,6-Dihydro-2H-pyran-4-yl)-3-methylphenyl]-4,5-dihydropyridazin-3(2H)-one] | 55.6 nM | 35 nM | > 100 nM | 200 nM
9 | O=C1CCC(c2ccc(N3CC(O)C3)c(C(F)(F)F)c2)=NN1 [Example 24, 6-[4-(3-Hydroxyazetidin-1-yl)-3-(trifluoromethyl)phenyl]-4,5-dihydropyridazin-3(2H)-one] | 9.97 nM | 300 nM | 15 nM | 350 nM
10 | C/C=C(\C)c1ccc(C2=NNC(=O)CC2)cc1F [Example 36, 6-{4-[(2E)-but-2-en-2-yl]-3-fluorophenyl}-4,5-dihydropyridazin-3(2H)-one] | 8.33 nM | 390 nM | 14.3 nM | 420 nM
11 | O=C1CCC(c2ccc(-c3ccncc3)c(F)c2)=NN1 [Example 30, 6-[3-fluoro-4-(pyridin-4-yl)phenyl]-4,5-dihydropyridazin-3(2H)-one] | 9.66 nM | 31 nM | 14.2 nM | 33 nM
12 | O=C1CCC(c2ccc(-c3cc(F)ccc3F)c(F)c2)=NN1 [Example 42, 6-(2,2′,5′-trifluoro[1,1′-biphenyl]-4-yl)-4,5-dihydropyridazin-3(2H)-one] | 5.23 nM | 68 nM | 8.4 nM | 80 nM
13 | O=C1CCC(c2ccc(N3CCOCC3)c(F)c2)=NN1 [Example 25, 6-[3-Fluoro-4-(morpholin-4-yl)phenyl]-4,5-dihydropyridazin-3(2H)-one] | 6.19 nM | 160 nM | 19.9 nM | 210 nM
14 | Cc1ccc(-c2ccc(C3=NNC(=O)CC3)cc2F)cc1N [Example 48, 6-(3′-amino-2-fluoro-4′-methyl[1,1′-biphenyl]-4-yl)-4,5-dihydropyridazin-3(2H)-one] | 13.1 nM | 260 nM | 20.9 nM | 230 nM

Now from value to molecule:

Row | IC50 [1] | IC50 (human full length PDE3B) | IC50 (SK-MEL-3 (melanoma)) | IC50 (human full length PDE3A) | SMILES
15 | 9.52 nM | 39 nM | 15.4 nM | 52 nM | Cc1cnccc1-c1ccc(C2=NNC(=O)CC2)cc1F [Example 73, 6-[3-fluoro-4-(3-methylpyridin-4-yl)phenyl]-4,5-dihydropyridazin-3(2H)-one]
16 | 7.82 nM | 120 nM | 11.6 nM | 120 nM | O=C1CCC(c2ccc(-c3ccc(F)nc3)c(F)c2)=NN1 [Example 71, 6-[3-fluoro-4-(6-fluoropyridin-3-yl)phenyl]-4,5-dihydropyridazin-3(2H)-one]
17 | 27.6 nM | 120 nM | 43.5 nM | 100 nM | O=C1CCC(c2ccc(-c3cccc4[nH]ccc34)c(F)c2)=NN1 [Example 75, 6-[3-fluoro-4-(1H-indol-4-yl)phenyl]-4,5-dihydropyridazin-3(2H)-one]
18 | 5.26 nM | 92 nM | 9.51 nM | 120 nM | O=C1CCC(c2ccc(-c3ccc(F)c(F)c3)c(F)c2)=NN1 [Example 51, 6-(2,3′,4′-trifluoro[1,1′-biphenyl]-4-yl)-4,5-dihydropyridazin-3(2H)-one]
19 | 13.4 nM | 120 nM | 70.8 nM | 120 nM | Cc1cc(C2=NNC(=O)CC2)ccc1-c1cccc(F)c1F [Example 104, 6-(2′,3′-difluoro-2-methyl[1,1′-biphenyl]-4-yl)-4,5-dihydropyridazin-3(2H)-one]
20 | 39.6 nM | 32 nM | > 100 nM | 42 nM | COc1ccccc1-c1ccc(C2=NNC(=O)CC2)cc1C [Example 111, 6-(2′-methoxy-2-methyl[1,1′-biphenyl]-4-yl)-4,5-dihydropyridazin-3(2H)-one]
21 | 40.6 nM | 41 nM | 8.88 nM | 63 nM | O=C1CCC(c2ccc(-c3cccc(O)c3)c(F)c2)=NN1 [Example 49, 6-(2-fluoro-3′-hydroxy[1,1′-biphenyl]-4-yl)-4,5-dihydropyridazin-3(2H)-one]
22 | 14 nM | 47 nM | 22.8 nM | 120 nM | COc1ccccc1-c1ccc(C2=NNC(=O)CC2)cc1F [Example 62, 6-(2-fluoro-2′-methoxy[1,1′-biphenyl]-4-yl)-4,5-dihydropyridazin-3(2H)-one]
23 | 3.72 nM | 215 nM | 8.15 nM | 385 nM | Cc1ccc(-c2ccc(C3=NNC(=O)CC3)cc2F)cc1 [Example 87, 6-(2-fluoro-4′-methyl[1,1′-biphenyl]-4-yl)-4,5-dihydropyridazin-3(2H)-one]
24 | 6.54 nM | 210 nM | 17.8 nM | 160 nM | Cc1cc(C2=NNC(=O)CC2)ccc1-c1ccc(Cl)c(N)c1 [Example 108, 6-(3′-amino-4′-chloro-2-methyl[1,1′-biphenyl]-4-yl)-4,5-dihydropyridazin-3(2H)-one]
25 | 5.29 nM | 95 nM | 7.06 nM | 59 nM | O=C1CCC(c2ccc(N3CCOCC3)c(C(F)(F)F)c2)=NN1 [Example 126, 6-[4-(Morpholin-4-yl)-3-(trifluoromethyl)phenyl]-4,5-dihydropyridazin-3(2H)-one]
26 | 65.8 nM | 290 nM | > 100 nM | 290 nM | Cc1cc(-c2ccc(C3=NNC(=O)CC3)cc2C)ccc1F [Example 119, 6-(4′-fluoro-2,3′-dimethyl[1,1′-biphenyl]-4-yl)-4,5-dihydropyridazin-3(2H)-one]
27 | 2.08 nM | 47 nM | 4.2 nM | 96 nM | O=C1CCC(c2ccc(-c3ccccc3F)c(F)c2)=NN1 [Example 60, 6-(2,2′-difluoro[1,1′-biphenyl]-4-yl)-4,5-dihydropyridazin-3(2H)-one]
28 | 4.34 nM | 62 nM | 7.24 nM | 110 nM | Cc1ccc(-c2ccc(C3=NNC(=O)CC3)cc2F)c(C)c1 [Example 56, 6-(2-fluoro-2′,4′-dimethyl[1,1′-biphenyl]-4-yl)-4,5-dihydropyridazin-3(2H)-one]
29 | 4.75 nM | 88 nM | 6.4 nM | 250 nM | O=C1CCC(c2ccc(-c3cccc(F)c3)c(F)c2)=NN1 [Example 63, 6-(2,3′-difluoro[1,1′-biphenyl]-4-yl)-4,5-dihydropyridazin-3(2H)-one]
30 | 13.9 nM | 230 nM | 26.3 nM | 370 nM | CCc1ccccc1-c1ccc(C2=NNC(=O)CC2)cc1F [Example 81, 6-(2′-ethyl-2-fluoro[1,1′-biphenyl]-4-yl)-4,5-dihydropyridazin-3(2H)-one]

— patent US11897867B2, “6-phenyl-4,5-dihydropyridazin-3(2H)-one derivatives as PDE3A and PDE3B inhibitors for treating cancer” (Bayer Aktiengesellschaft, priority 2017, dated 2024)
